Reference: patent US6274715A, “Tricyclic erythromycin derivatives” (priority 1997, dated 2001)
Values after ≈ are worked out from the molar mass of the structure shown.

Tests used:
Format in all cases: cell-based
[1] = system: PSEUDOMONAS AERUGINOSA DPHD-2862; assay: In vitro antibacterial activity, MIC, BHI agar dilution; settings: P. aeruginosa DPHD-2862, unit assumed
[2] = system: STREPTOCOCCUS BOVIS A-5169; assay: as above; settings: S. bovis A-5169, unit assumed
[3] = system: STAPHYLOCOCCUS AUREUS CMX 642A; assay: as above; settings: S. aureus CMX 642A, unit assumed
ESCHERICHIA COLI DC-2 = assay: as above; settings: E. coli DC-2, unit assumed
CANDIDA ALBICANS CCH 442 = assay: as above; settings: C. albicans CCH 442, unit assumed
[4] = system: STAPHYLOCOCCUS AUREUS NCTC10649M; assay: as above; settings: S. aureus NCTC10649M, unit assumed
[5] = system: STAPHYLOCOCCUS AUREUS 1775; assay: as above; settings: S. aureus 1775, unit assumed
[6] = system: STAPHYLOCOCCUS AUREUS ATCC 6538P; assay: as above; settings: S. aureus ATCC 6538P, 35-37° C., 20 to 24 hours, unit assumed
[7] = system: KLEBSIELLA PNEUMONIAE ATCC 8045; assay: as above; settings: K. pneumoniae ATCC 8045, unit assumed
[8] = system: STREPTOCOCCUS PYOGENES EES61; assay: as above; settings: S. pyogenes EES61, unit assumed
[9] = system: PROVIDENCIA STUARTII CMX 640; settings: P. stuartii CMX 640; BHI agar; unit assumed
[10] = system: PSEUDOMONAS AERUGINOSA BMH10; assay: In vitro antibacterial activity, MIC, BHI agar dilution; settings: P. aeruginosa BMH10, unit assumed
ESCHERICHIA COLI SS = assay: as above; settings: E. coli SS, unit assumed
EN[…] ATCC 8043 = assay: as above; settings: E. faecium ATCC 8043, unit assumed
Method in brief: (§1)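 BHI agar dilution, 12 plates; inoculum 1:100 (1:10 slow-growing strains), Steers replicator; 35-37° C, 20-24 h. MIC = lowest conc. with no growth/slight haze/sparse colonies vs growth control, visual read. Erythromycin A reference plate.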

STR[…] 508 = assay: as above; settings: S. agalactiae CMX 508, unit assumed
Method in brief: as §1

M[…] ATCC 9341 = assay: as above; settings: M. luteus ATCC 9341, unit assumed
Method in brief: as §1

M[…] ATCC 4698 = assay: as above; settings: M. luteus ATCC 4698, unit assumed
Method in brief: as §1

ESCHERICHIA COLI H560 = assay: as above; settings: E. coli H560, unit assumed
[11] = system: STAPHYLOCOCCUS AUREUS CMX 553; assay: as above; settings: S. aureus CMX 553, unit assumed
[12] = system: PSEUDOMONAS AERUGINOSA K799/WT; assay: as above; settings: P. aeruginosa K799/WT, unit assumed
[13] = system: STAPHYLOCOCCUS AUREUS A5177; assay: as above; settings: S. aureus A5177, unit assumed
[14] = system: STAPHYLOCOCCUS EPIDERMIDIS 3519; settings: S. epidermidis 3519; BHI agar; unit assumed
[15] = system: STREPTOCOCCUS PYOGENES PIU 2548; assay: In vitro antibacterial activity, MIC, BHI agar dilution; settings: S. pyogenes PIU 2548, unit assumed
PSEUDOMONAS CEPACIA 296I = assay: as above; settings: P. cepacia 296I, unit assumed
[16] = system: MYCOBACTERIUM SMEGMATIS ATCC 114; assay: as above; settings: M. smegmatis ATCC 114, unit assumed
ESCHERICHIA COLI JUHL = settings: E. coli JUHL; BHI agar; unit assumed
[17] = system: PSEUDOMONAS AERUGINOSA K799/61; assay: In vitro antibacterial activity, MIC, BHI agar dilution; settings: P. aeruginosa K799/61, unit assumed
[18] = system: ENTEROBACTER AEROGENES ATCC 13048; assay: as above; settings: E. aerogenes ATCC 13048, unit assumed
[19] = system: STAPHYLOCOCCUS AUREUS A-5278; assay: as above; settings: S. aureus A-5278, unit assumed
[20] = system: PSEUDOMONAS AERUGINOSA 5007; assay: as above; settings: P. aeruginosa 5007, unit assumed
ESCHERICHIA COLI KNK 437 = settings: E. coli KNK 437; BHI agar; unit assumed
[21] = system: PSEUDOMONAS AERUGINOSA DPHD-5263; assay: In vitro antibacterial activity, MIC, BHI agar dilution; settings: P. aeruginosa DPHD-5263, unit assumed
[22] = system: STREPTOCOCCUS PYOGENES 930; assay: as above; settings: S. pyogenes 930, unit assumed

Compound: CC[C@H]1OC(=O)[C@H](C)C(=O)[C@H](C)[C@@H](O[C@@H]2O[C@H](C)C[C@H](N(C)C)[C@H]2O)[C@](C)(OC)C[C@@H](C)C2=N[C@H](CO)CN3C(=O)O[C@@]1(C)[C@H]3[C@H]2C [Example 52]
- MIC [1]: > 100 µg/mL
- MIC [2]: 0.05 µg/mL (≈ 0.0749 µM)
- MIC [3]: 0.78 µg/mL (≈ 1.17 µM)
- MIC (ESCHERICHIA COLI DC-2): 100 µg/mL (≈ 150 µM)
- MIC (CANDIDA ALBICANS CCH 442): > 100 µg/mL
- MIC [4]: 0.78 µg/mL (≈ 1.17 µM)
- MIC [5]: > 100 µg/mL
- MIC [6]: 0.78 µg/mL (≈ 1.17 µM)
- MIC [7]: > 100 µg/mL
- MIC [8]: 0.05 µg/mL (≈ 0.0749 µM)
- MIC [9]: > 100 µg/mL
- MIC [10]: > 100 µg/mL
- MIC (ESCHERICHIA COLI SS): 0.39 µg/mL (≈ 0.584 µM)
- MIC (EN[…] ATCC 8043): 0.2 µg/mL (≈ 0.299 µM)
- MIC (STR[…] 508): 0.05 µg/mL (≈ 0.0749 µM)
- MIC (M[…] ATCC 9341): 0.1 µg/mL (≈ 0.15 µM)
- MIC (M[…] ATCC 4698): 0.39 µg/mL (≈ 0.584 µM)
- MIC (ESCHERICHIA COLI H560): 50 µg/mL (≈ 74.9 µM)
- MIC [11]: 0.78 µg/mL (≈ 1.17 µM)
- MIC [12]: > 100 µg/mL
- MIC [13]: 0.78 µg/mL (≈ 1.17 µM)
- MIC [14]: 0.78 µg/mL (≈ 1.17 µM)
- MIC [15]: 1.56 µg/mL (≈ 2.34 µM)
- MIC (PSEUDOMONAS CEPACIA 296I): > 100 µg/mL
- MIC [16]: 12.5 µg/mL (≈ 18.7 µM)
- MIC (ESCHERICHIA COLI JUHL): 100 µg/mL (≈ 150 µM)
- MIC [17]: 1.56 µg/mL (≈ 2.34 µM)
- MIC [18]: > 100 µg/mL
- MIC [19]: > 100 µg/mL
- MIC [20]: > 100 µg/mL
- MIC (ESCHERICHIA COLI KNK 437): 100 µg/mL (≈ 150 µM)
- MIC [21]: > 100 µg/mL
- MIC [22]: > 100 µg/mL

Compound: CC[C@H]1OC(=O)[C@H](C)C(=O)[C@H](C)[C@@H](O[C@@H]2O[C@H](C)C[C@H](N(C)C)[C@H]2O)[C@](C)(OC)C[C@@H](C)C2=NC[C@H](CSCc3ccccc3)N3C(=O)O[C@@]1(C)[C@H]3[C@H]2C [Example 66]
- MIC [1]: > 100 µg/mL
- MIC [2]: 0.01 µg/mL (≈ 0.0129 µM)
- MIC [3]: 0.2 µg/mL (≈ 0.258 µM)
- MIC (ESCHERICHIA COLI DC-2): 12.5 µg/mL (≈ 16.1 µM)
- MIC (CANDIDA ALBICANS CCH 442): > 100 µg/mL
- MIC [4]: 0.1 µg/mL (≈ 0.129 µM)
- MIC [5]: > 100 µg/mL
- MIC [6]: 0.1 µg/mL (≈ 0.129 µM)
- MIC [7]: > 100 µg/mL
- MIC [8]: 0.01 µg/mL (≈ 0.0129 µM)
- MIC [9]: > 100 µg/mL
- MIC [10]: 100 µg/mL (≈ 129 µM)
- MIC (ESCHERICHIA COLI SS): 0.39 µg/mL (≈ 0.504 µM)
- MIC (EN[…] ATCC 8043): 0.02 µg/mL (≈ 0.0258 µM)
- MIC (STR[…] 508): 0.01 µg/mL (≈ 0.0129 µM)
- MIC (M[…] ATCC 9341): 0.02 µg/mL (≈ 0.0258 µM)
- MIC (M[…] ATCC 4698): 0.2 µg/mL (≈ 0.258 µM)
- MIC (ESCHERICHIA COLI H560): 12.5 µg/mL (≈ 16.1 µM)
- MIC [11]: 0.2 µg/mL (≈ 0.258 µM)
- MIC [12]: 100 µg/mL (≈ 129 µM)
- MIC [13]: 0.1 µg/mL (≈ 0.129 µM)
- MIC [14]: 0.2 µg/mL (≈ 0.258 µM)
- MIC [15]: 0.39 µg/mL (≈ 0.504 µM)
- MIC (PSEUDOMONAS CEPACIA 296I): 100 µg/mL (≈ 129 µM)
- MIC [16]: 0.39 µg/mL (≈ 0.504 µM)
- MIC (ESCHERICHIA COLI JUHL): 25 µg/mL (≈ 32.3 µM)
- MIC [17]: 0.39 µg/mL (≈ 0.504 µM)
- MIC [18]: > 100 µg/mL
- MIC [19]: > 100 µg/mL
- MIC [20]: > 100 µg/mL
- MIC (ESCHERICHIA COLI KNK 437): 25 µg/mL (≈ 32.3 µM)
- MIC [21]: 100 µg/mL (≈ 129 µM)
- MIC [22]: > 100 µg/mL

Compound: CC[C@H]1OC(=O)[C@H](C)C(=O)[C@H](C)[C@@H](O[C@@H]2O[C@H](C)C[C@H](N(C)C)[C@H]2O)[C@](C)(OC)C[C@@H](C)C2=NC[C@H](Cc3cscn3)N3C(=O)O[C@@]1(C)[C@H]3[C@H]2C [Example 69]
- MIC [1]: > 100 µg/mL
- MIC [2]: 0.01 µg/mL (≈ 0.0136 µM)
- MIC [3]: 0.39 µg/mL (≈ 0.531 µM)
- MIC (ESCHERICHIA COLI DC-2): 50 µg/mL (≈ 68 µM)
- MIC (CANDIDA ALBICANS CCH 442): > 100 µg/mL
- MIC [4]: 0.2 µg/mL (≈ 0.272 µM)
- MIC [5]: > 100 µg/mL
- MIC [6]: 0.2 µg/mL (≈ 0.272 µM)
- MIC [7]: > 100 µg/mL
- MIC [8]: 0.02 µg/mL (≈ 0.0272 µM)
- MIC [9]: > 100 µg/mL
- MIC [10]: > 100 µg/mL
- MIC (ESCHERICHIA COLI SS): 0.39 µg/mL (≈ 0.531 µM)
- MIC (EN[…] ATCC 8043): 0.1 µg/mL (≈ 0.136 µM)
- MIC (STR[…] 508): 0.02 µg/mL (≈ 0.0272 µM)
- MIC (M[…] ATCC 9341): 0.05 µg/mL (≈ 0.068 µM)
- MIC (M[…] ATCC 4698): 0.2 µg/mL (≈ 0.272 µM)
- MIC (ESCHERICHIA COLI H560): 50 µg/mL (≈ 68 µM)
- MIC [11]: 0.2 µg/mL (≈ 0.272 µM)
- MIC [12]: > 100 µg/mL
- MIC [13]: 0.2 µg/mL (≈ 0.272 µM)
- MIC [14]: 0.2 µg/mL (≈ 0.272 µM)
- MIC [15]: 0.39 µg/mL (≈ 0.531 µM)
- MIC (PSEUDOMONAS CEPACIA 296I): > 100 µg/mL
- MIC [16]: 3.1 µg/mL (≈ 4.22 µM)
- MIC (ESCHERICHIA COLI JUHL): 100 µg/mL (≈ 136 µM)
- MIC [17]: 0.78 µg/mL (≈ 1.06 µM)
- MIC [18]: > 100 µg/mL
- MIC [19]: > 100 µg/mL
- MIC [20]: > 100 µg/mL
- MIC (ESCHERICHIA COLI KNK 437): > 100 µg/mL
- MIC [21]: > 100 µg/mL
- MIC [22]: > 100 µg/mL
